# Measured values from patent publication US20070110779A1, “Activated peroxide solutions and a process for the preparation thereof” (ASEPTIX TECHNOLOGIES B.V., priority 2005, published 2007).
# Like-named read-outs stand apart in the source and are kept apart here.
# Experiments:
# [1] = pH measurement of the solution; type: physicochemical
# Procedure: (§1) The peroxide concentration is determined by a potassium permanganate titration procedure and the devices used for the measurement of pH, ORP and conductivity are a WTW 537, a Testo 230 ORP and a HANNA EC device, respectively.
# [2] = oxidation-reduction potential (ORP) measurement of the solution; type: physicochemical
# Procedure: as §1
# [3] = electrical conductivity measurement of the solution; type: physicochemical
# Procedure: as §1
# Escherichia coli = assay: bactericidal suspension test conform EN 1040 (Example 1); type: cell-based; conditions: after 5 minutes
# Procedure: (§2) In a controlled bactericidal suspension test conform European Norm for testing of basic bactericidal activity of chemical disinfectants and antiseptics EN 1040, a 1 ml McFarland standard 0.5 (10^8 microorganisms per ml) was mixed 1:8 with the activated peroxide solution and 1 ml milli-Q water. After 10 minutes, Staphylococcus aureus was killed 100%, while Escherichia coli, Salmonella typhimurium, Rhodotorula rubra and Pseudomonas aeruginosa were all killed 100% already after 5 minutes. A 100% kill typically is shown by at least a log 5 reduction.
# Pseudomonas aeruginosa = assay: as above; type: cell-based; conditions: after 5 minutes
# Procedure: as §2
# Rhodotorula rubra = assay: as above; type: cell-based; conditions: after 5 minutes
# Procedure: as §2
# Salmonella typhimurium = assay: as above; type: cell-based; conditions: after 5 minutes
# Procedure: as §2
# Staphylococcus aureus = assay: as above; type: cell-based
# Procedure: as §2
# [4] = system: Corynebacterium minitissium; assay: test of corona treated solution against strains of bacteria (Example 3); type: cell-based; conditions: after 5 minutes
# Procedure: (§3) The corona treated solution was then tested against several strains of bacteria and compared to untreated solutions of 1% hydrogen peroxide.
# E. coli = assay: as above; type: cell-based; conditions: after 5 minutes
# Procedure: as §3
# Lysteria = assay: as above; type: cell-based; conditions: after 5 minutes
# Procedure: as §3
structure (smiles),measurement,setting,value
"OO [10% H2O2, hydrogen peroxide]",pH of the solution,[1],approximately 3.3
same,ORP of the solution,[2],446 mV
same,conductivity,[3],110 μS/cm
"OO [1.6% common hydrogen peroxide solution, hydrogen peroxide]",killed,Escherichia coli,< 100%
same,killed,Pseudomonas aeruginosa,< 100%
same,killed,Rhodotorula rubra,< 100%
same,killed / reduction,Salmonella typhimurium,70%
same,reduction,Staphylococcus aureus; after 5 minutes,none
same,reduction,Staphylococcus aureus; after 20 minutes,50%
"OO [standard 1% hydrogen peroxide, hydrogen peroxide]",reduced with log,[4],no countable reduction
same,reduced with log,E. coli,no countable reduction
same,reduced with log,Lysteria,no countable reduction
same,pH of the solution,[1]; listed as 1% H2O2,approximately 4.4
same,ORP of the solution,[2]; listed as 1% H2O2,390 mV
same,conductivity,[3]; listed as 1% H2O2,30 μS/cm
"OO [3% H2O2, hydrogen peroxide]",pH of the solution,[1],approximately 3.9
same,ORP of the solution,[2],411 mV
same,conductivity,[3],60 μS/cm
"OO [0.5% H2O2, hydrogen peroxide]",pH of the solution,[1],approximately 4.6
same,ORP of the solution,[2],374 mV
same,conductivity,[3],approximately 21 μS/cm
"OO [Example 1 solution before activation, hydrogen peroxide]",pH of the solution,[1],5.8
"OO [5% H2O2, hydrogen peroxide]",pH of the solution,[1],approximately 3.7
same,ORP of the solution,[2],428 mV
same,conductivity,[3],90 μS/cm
"OO [0.1% H2O2, hydrogen peroxide]",pH of the solution,[1],approximately 4.9
same,ORP of the solution,[2],355 mV
same,conductivity,[3],20 μS/cm
"OO [Example 3 starting solution, hydrogen peroxide]",pH of the solution,[1],4.5
same,ORP of the solution,[2],380 mV
same,conductivity,[3],17.8 microSiemens/cm
